Experimental findings from US7598245B2 (Vertex Pharmaceuticals Incorporated, priority 2003, dated 2009) are described below.

One assay has as its target T1, human Src kinase (Homo sapiens, UniProt P12931).
T1 construct: 25 nM of recombinant human Src kinase
Briefly: Src inhibition assay B: spectrophotometric (uv-vis) coupled enzyme assay. Type of assay: biochemical. The note with it: 100 μM ATP. On the procedure: The compounds are evaluated as inhibitors of human Src kinase using either a radioactivity-based assay or spectrophotometric assay.
Src Inhibition Assay B: Spectrophotometric Assay
The ADP produced from ATP by the human recombinant Src kinase-catalyzed phosphorylation of poly Glu-Tyr substrate is quantified using a coupled enzyme assay [Fox et al. Protein Sci. 1998, 7, 2249]. In this assay one molecule of NADH is oxidised to NAD for every molecule of ADP produced in the kinase reaction. The disappearance of NADH is conveniently followed at 340 nm.
The following are the final concentrations of the assay components: 0.025 M HEPES (pH 7.6), 10 mM MgCl2, 2 mM DTT, 0.25 mg/ml poly Glu-Tyr, and 25 nM of recombinant human Src kinase. Final concentrations of the components of the coupled enzyme system are 2.5 mM phosphoenolpyruvate, 200 μM NADH, 30 μg/ml pyruvate kinase and 10 μg/ml lactate dehydrogenase.
In a typical assay, all the reaction components with the exception of ATP are pre-mixed and aliquoted into assay plate wells. Inhibitors dissolved in DMSO are added to the wells to give a final DMSO concentration of 2.5%. The assay plate is incubated at 30° C. for 10 min before initiating the reaction with 100 μM ATP. The absorbance change at 340 nm with time, the rate of the reaction, is monitored on a molecular devices plate reader. The data of rate as a function of the inhibitor concentration is fitted to competitive inhibition kinetics model to get the Ki for the compound.

Another assay has as its target T2, FLT-3 (Homo sapiens, UniProt P36888).
T2 construct: 0.02% BSA and 3 nM FLT-3
T2 sequence (P36888 27-993): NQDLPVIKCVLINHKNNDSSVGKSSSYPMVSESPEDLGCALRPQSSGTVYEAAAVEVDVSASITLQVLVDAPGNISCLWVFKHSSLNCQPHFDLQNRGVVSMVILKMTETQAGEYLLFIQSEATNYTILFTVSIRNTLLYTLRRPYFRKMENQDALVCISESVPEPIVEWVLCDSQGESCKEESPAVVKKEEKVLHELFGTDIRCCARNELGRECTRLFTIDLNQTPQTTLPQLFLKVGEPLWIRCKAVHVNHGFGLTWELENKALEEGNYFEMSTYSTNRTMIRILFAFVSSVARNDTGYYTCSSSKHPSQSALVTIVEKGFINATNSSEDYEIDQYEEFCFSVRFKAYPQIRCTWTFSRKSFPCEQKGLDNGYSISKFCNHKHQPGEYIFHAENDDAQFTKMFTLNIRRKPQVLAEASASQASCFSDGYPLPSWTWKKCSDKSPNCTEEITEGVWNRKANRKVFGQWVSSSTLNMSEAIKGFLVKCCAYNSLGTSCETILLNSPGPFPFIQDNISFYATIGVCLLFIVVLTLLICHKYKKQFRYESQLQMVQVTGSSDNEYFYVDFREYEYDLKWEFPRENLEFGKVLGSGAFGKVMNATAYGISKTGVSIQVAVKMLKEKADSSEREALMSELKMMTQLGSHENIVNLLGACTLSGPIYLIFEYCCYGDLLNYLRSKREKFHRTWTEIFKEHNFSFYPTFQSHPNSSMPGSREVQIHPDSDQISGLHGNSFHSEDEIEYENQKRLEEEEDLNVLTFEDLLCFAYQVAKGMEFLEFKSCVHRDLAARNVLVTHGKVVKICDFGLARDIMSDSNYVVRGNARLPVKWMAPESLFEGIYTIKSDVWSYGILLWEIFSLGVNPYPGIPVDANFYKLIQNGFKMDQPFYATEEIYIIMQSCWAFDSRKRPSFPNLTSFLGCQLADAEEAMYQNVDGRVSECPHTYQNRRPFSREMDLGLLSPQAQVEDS
In words: Inhibition of FLT-3, radiometric filter-binding assay. Type of assay: biochemical. The note with it: 90 μM ATP, pE4Y substrate. On the procedure: Compounds were screened for their ability to inhibit FLT-3 activity using a radiometric filter-binding assay. This assay monitors the ^33P incorporation into a substrate poly(Glu, Tyr) 4:1 (pE4Y). Reactions were carried out in a solution containing 100 mM HEPES (pH 7.5), 10 mM MgCl2, 25 mM NaCl, 1 mM DTT, 0.01% BSA and 2.5% DMSO. Final substrate concentrations in the assay were 90 μM ATP and 0.5 mg/mL pE4Y (both from Sigma Chemicals, St Louis, Mo.). The final concentration of compounds is generally between 0.01 and 5 μM. Typically, a 12-point titration was conducted by preparing serial dilutions from 10 mM DMSO stock of test compound. Reactions were carried out at room temperature.
Two assay solutions were prepared. Solution 1 contains 100 mM HEPES (pH 7.5), 10 mM MgCl2, 25 mM NaCl, 1 mg/ml pE4Y and 180 μM ATP (containing 0.3 μCi of [γ-^33P]ATP for each reaction). Solution 2 contains 100 mM HEPES (pH 7.5), 10 mM MgCl2, 25 mM NaCl, 2 mM DTT, 0.02% BSA and 3 nM FLT-3. The assay was run on a 96 well plate by mixing 50 μL each of Solution1 and 2.5 mL of the test compounds. The reaction was initiated with Solution2. After incubation for 20 minutes at room temperature, the reaction was stopped with 50 μL of 20% TCA containing 0.4 mM of ATP. All of the reaction volume was then transferred to a filter plate and washed with 5% TCA by a Harvester9600 from TOMTEC (Hamden, Conn.). The amount of ^33P incorporation into pE4y was analyzed by a Packard TopCount Microplate Scintillation Counter (Meriden, Conn.). The data was fitted using Prism software to get an IC50 or Ki.

Where [1] appears, read: given as IC50 or Ki, read-out: IC50 or Ki values (FLT-3).

One may read the Ki as a dissociation constant, usually derived from enzyme kinetics or from competition with a known ligand.

“And” between values parts separate entries of the source, which are not always exact repeats. Equal values may be shown once. Read-outs that look alike come from different tables or passages of the source.

T1 sequence (P12931 whole entry): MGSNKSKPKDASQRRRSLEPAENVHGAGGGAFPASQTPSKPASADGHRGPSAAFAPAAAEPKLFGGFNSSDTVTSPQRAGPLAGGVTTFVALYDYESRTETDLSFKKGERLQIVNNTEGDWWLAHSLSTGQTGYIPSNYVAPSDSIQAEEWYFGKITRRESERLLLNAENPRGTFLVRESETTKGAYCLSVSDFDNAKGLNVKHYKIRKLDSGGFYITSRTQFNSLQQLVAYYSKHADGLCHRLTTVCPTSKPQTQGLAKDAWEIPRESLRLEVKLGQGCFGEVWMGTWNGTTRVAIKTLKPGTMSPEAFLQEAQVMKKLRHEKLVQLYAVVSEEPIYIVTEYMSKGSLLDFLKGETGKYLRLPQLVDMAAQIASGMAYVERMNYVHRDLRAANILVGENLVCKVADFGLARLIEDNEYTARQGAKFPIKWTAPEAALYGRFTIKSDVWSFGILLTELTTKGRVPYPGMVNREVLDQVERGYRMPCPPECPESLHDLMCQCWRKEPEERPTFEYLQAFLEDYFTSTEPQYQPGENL

Regarding `CC(=O)N1[C@H](C)CN(c2cc(-n3cnc(Nc4ccc(NC(=O)c5cccs5)cc4)n3)ccn2)C[C@@H]1C` [Compound I-80], the figures for the Ki on human Src kinase and at FLT-3 (read-out: Ki values (FLT-3)) were 500 to 1000 nM and less than 60 nM, respectively. Consider `COC(=O)Nc1ccc(Nc2ncn(-c3ccnc(N4C[C@@H](C)N(C(C)=O)[C@@H](C)C4)c3)n2)cc1` [Compound I-78], for which the Ki at human Src kinase was less than 500 nM; on FLT-3 (read-out: Ki values (FLT-3)), less than 60 nM. For the compound `CC(C)CCN(C)c1cc(-n2cnc(Nc3ccccc3)n2)ccn1` [Compound I-62, methyl-(3-methyl-butyl)-[4-(3-phenylamino-[1,2,4]triazol-1-yl)-pyridin-2-yl]-amine], the Ki on human Src kinase lay in the range of 500 to 1000 nM; at FLT-3 (read-out: Ki values (FLT-3)), 1 to 30 nM. The corresponding values for `CC(=O)N1CCCN(c2cc(-n3cnc(Nc4ccccc4)n3)ccn2)CC1` [Compound I-66] are greater than 1000 nM and less than 60 nM. The corresponding values for `CC(=O)N1[C@H](C)CN(c2cc(-n3cnc(Nc4ccc(N)cc4)n3)ccn2)C[C@@H]1C` [Compound I-82] are less than 500 nM and less than 60 nM.

Take `CCCNC(=O)Nc1ccc(Nc2ncn(-c3ccnc(N4C[C@@H](C)N(C(C)=O)[C@@H](C)C4)c3)n2)cc1` [Compound I-99]: the Ki is less than 500 nM on human Src kinase and 1 to 30 nM at FLT-3 (read-out: Ki values (FLT-3)).

On to `CCNC(=O)Nc1ccc(Nc2ncn(-c3ccnc(N4C[C@@H](C)N(C(C)=O)[C@@H](C)C4)c3)n2)cc1` [Compound I-98, 1-(4-{1-[2-(4-Acetyl-3,5-dimethyl-piperazin-1-yl)-pyridin-4-yl]-1H-[1,2,4]triazol-3-ylamino}-phenyl)-3-ethyl-urea], for which the Ki on human Src kinase is less than 500 nM; at FLT-3 (read-out: Ki values (FLT-3)) it was 1 to 30 nM. The corresponding values for `c1ccc(Nc2ncn(-c3ccnc(N4CCCCCC4)c3)n2)cc1` [Compound I-73] are less than 500 nM and less than 60 nM.

Take `CN1CCN(c2ccc(Nc3ncn(-c4ccccc4)n3)cn2)CC1` [Compound I-135]: the Ki on human Src kinase was greater than 1000 nM; at FLT-3 (read-out: Ki values (FLT-3)) it was 30 to 200 nM. The corresponding values for `O=C(C1CCCO1)N1CCN(c2cc(-n3cnc(Nc4ccccc4)n3)ccn2)CC1` (stereo not shown) [Compound I-64] are greater than 1000 nM and greater than 200 nM. As to `CCOc1cccc(Nc2ncn(-c3ccccc3)n2)c1` [Compound I-45], the values for the Ki on human Src kinase, at FLT-3 (setting [1]) and at FLT-3 (read-out: Ki values (FLT-3)) were less than 500 nM, less than 100 nM and 1 to 30 nM, respectively. `CCN(CCO)c1cc(-n2cnc(Nc3ccccc3)n2)ccn1` [Compound I-54] returned a Ki on human Src kinase of less than 500 nM. Turning to `c1ccc(Nc2ncn(-c3ccnc(N4CCCCC4)c3)n2)cc1` [Compound I-49, phenyl-[1-(3,4,5,6-tetrahydro-2H-[1,2′]bipyridinyl-4′-yl)-1H-[1,2,4]triazol-3-yl]-amine], the inhibition constant (Ki) at human Src kinase is less than 500 nM; at FLT-3 (read-out: Ki values (FLT-3)), less than 60 nM. The corresponding values for `CCOC(=O)c1ccc(Nc2ncn(-c3ccnc(N4C[C@@H](C)N(C(C)=O)[C@@H](C)C4)c3)n2)cc1` [Compound I-75] are less than 500 nM and 30 to 200 nM. Take `CC(=O)N1[C@H](C)CN(c2cc(-n3cnc(Nc4ccc(N5CCN(C(=O)OC(C)(C)C)CC5)cc4)n3)ccn2)C[C@@H]1C` [Compound I-97, 4-(4-{1-[2-(4-Acetyl-3,5-dimethyl-piperazin-1-yl)-pyridin-4-yl]-1H-[1,2,4]triazol-3-ylamino}-phenyl)-piperazine-1-carboxylic acid tert-butyl ester]: the Ki was less than 500 nM at human Src kinase and 1 to 30 nM on FLT-3 (read-out: Ki values (FLT-3)). On to `COCCN(C)c1cc(-n2cnc(Nc3ccccc3)n2)ccn1` [Compound I-59, (2-methoxy-ethyl)-methyl-[4-(3-phenylamino-[1,2,4]triazol-1-yl)-pyridin-2-yl]-amine], for which the Ki is greater than 1000 nM on human Src kinase and 1 to 30 nM at FLT-3 (read-out: Ki values (FLT-3)). Consider `CC(=O)N1[C@H](C)CN(c2cc(-n3cnc(Nc4ccc(NC(=O)NC(C)C)cc4)n3)ccn2)C[C@@H]1C` [Compound I-100], for which the results for the inhibition constant (Ki) on human Src kinase and at FLT-3 (read-out: Ki values (FLT-3)) were less than 500 nM and 1 to 30 nM, respectively.

For the compound `c1ccc(-n2cnc(Nc3ccc4c(c3)OCCO4)n2)cc1` [Compound I-44], the inhibition constant (Ki) on human Src kinase was 500 to 1000 nM; on FLT-3 (setting [1]), less than 100 nM; at FLT-3 (read-out: Ki values (FLT-3)) it was 1 to 30 nM.

With `CN1C(C)(C)CC(Nc2cc(-n3cnc(Nc4ccccc4)n3)ccn2)CC1(C)C` [Compound I-61], on human Src kinase, the Ki is less than 500 nM. Same read-out and setting: as for `CC(C)CC(=O)N1CCCN(c2cc(-n3cnc(Nc4ccccc4)n3)ccn2)CC1` [Compound I-70], the figure is greater than 1000 nM. As to `CC(=O)N1[C@H](C)CN(c2cc(-n3cnc(Nc4ccc(N5CCOCC5)cc4)n3)ccn2)C[C@@H]1C` [Compound I-85, 1-(2,6-Dimethyl-4-{4-[3-(4-morpholin-4-yl-phenylamino)-[1,2,4]triazol-1-yl]-pyridin-2-yl}-piperazin-1-yl)-ethanone], the Ki on human Src kinase was 500 to 1000 nM; on FLT-3 (read-out: Ki values (FLT-3)) it was 30 to 200 nM.

Consider `CCCC(=O)N1CCCN(c2cc(-n3cnc(Nc4ccccc4)n3)ccn2)CC1` [Compound I-68], for which the values for the inhibition constant (Ki) at human Src kinase and at FLT-3 (read-out: Ki values (FLT-3)) were greater than 1000 nM and 30 to 200 nM, respectively.

For the compound `CC(=O)N1[C@H](C)CN(c2cc(-n3cnc(Nc4ccc(NC(=O)C(F)(F)F)cc4)n3)ccn2)C[C@@H]1C` [Compound I-79], the inhibition constant (Ki) at human Src kinase was less than 500 nM; at FLT-3 (read-out: Ki values (FLT-3)), less than 60 nM. The corresponding values for `CC(C)C(=O)N1CCCN(c2cc(-n3cnc(Nc4ccccc4)n3)ccn2)CC1` [Compound I-69] are greater than 1000 nM and 30 to 200 nM. The corresponding values for `O=c1[nH]c2ccccc2n1C1CCN(c2cc(-n3cnc(Nc4ccccc4)n3)ccn2)CC1` [Compound I-63] are greater than 1000 nM and greater than 200 nM.

As for `c1ccc(-n2cnc(Nc3ccc(N4CCOCC4)nc3)n2)cc1` [Compound I-134], the Ki is greater than 1000 nM on human Src kinase; 30 to 200 nM and > 200 nM at FLT-3 (read-out: Ki values (FLT-3)). `OC[C@H]1CCCN(c2cc(-n3cnc(Nc4ccccc4)n3)ccn2)C1` [Compound I-65]: the Ki on human Src kinase was less than 500 nM. The same measure, in the same setting: with `O=C(Nc1cc(-n2cnc(Nc3ccccc3)n2)ccn1)C1CCCCC1` [Compound I-93] the figure was 500 to 1000 nM; with `CN(C)CCCN(C)c1cc(-n2cnc(Nc3ccccc3)n2)ccn1` [Compound I-53], greater than 1000 nM. On the same count and under the same terms, as for `c1ccc(Nc2ncn(-c3ccnc(N4CCCCCCC4)c3)n2)cc1` [Compound I-52], the figure is less than 500 nM.
